Results on one compound are retold here after patent publication US20080182267A1, “METHOD FOR PREDICTING A DRUG TRANSPORT CAPABILITY BY ABCG2 POLYMORPHISMS” (BANYU PHARMACEUTICAL CO., Ltd., priority 2002, published 2008).

For series [1], the system named is LLC-PK1 cell line (C4) transfected with vector alone. Kind of series: Cytotoxicity by sulforhodamine B dye-staining, clone C4 (vector alone). It is filed as cell-based, porcine. Conditions: Sus scrofa, no ABCG2, 72 hours, 37° C., read-out: IC50 for cell viability. The method, then:
(§1) Among the polymorphic mutations identified in Example 1, two mutations—G34A and C421A—having a high possibility to affect the function of the ABCG2 polypeptide were prepared and introduced into animal cells as an endeavor to analyze their functions. Preparation of the mutated ABCG2 genes was conducted by PCR and a point mutation was introduced. […] As a control, a plasmid expressing the wild type (WT) ABCG2 and the vector plasmid pcDNA3.1(+) alone without the ABCG2 gene were used and those four kinds of expression plasmids were introduced to an animal cell (porcine kidney cell line) LLC-PK1 by lipofection method (Lipofectamine; Gibco BRL). Stable transfectants were selected with 1,500 μg/ml of Geneticin (Gibco BRL) for two weeks and cell lines were established. To determine the expressed level of ABCG2 in each cell line, total RNA was extracted from each transfectant cells and HeLa cells with Trizol (Gibco BRL). Seven microgram of the total RNA extracted from each clone of cell and full length ABCG2 cDNA (2.2 kb) probe labeled with ^32P were used for Northern hybridization. […]
(§2) All of the incubations were carried out at 37° C. under the humidified atmosphere containing 5% of carbon dioxide. The cytotoxicity of anticancer drugs was determined by sulforhodamine B dye-staining method and compared with each other. […]

Another series deals with ABCG2 (Gln141Lys mutant). In words: Cytotoxicity by sulforhodamine B dye-staining, clone 3-28 (ABCG2 Gln141Lys). The note with it: pig. The method, then: as §1, §2
In general terms: Sulforhodamine B stains cellular protein and so reports cell mass.

The test system of a further series is ABCG2 (Val12Met mutant). In words: Cytotoxicity by sulforhodamine B dye-staining, clone 2-51 (ABCG2 Val12Met). The note with it: pig. How it is done:
as §1, §2

In a further series the test system is ABCG2 (wild type). In words: Cytotoxicity by sulforhodamine B dye-staining, clone 1-58 (wild type ABCG2). Conditions: pig. How it is done: as §1, §2
In series [2] the test system is LLC-PK1 cell line (1-58) expressing the wild type ABCG2. The series is described as above. The note with it: among the four transfectant clones C4, 1-58, 2-51, 3-28. The method, then: as §1, §2

The IC50 is the concentration needed to halve the response being measured. For the compound `CC[C@@]1(O)C(=O)OCc2c1cc1n(c2=O)Cc2cc3ccccc3nc2-1` [Camptothecin, camptothecin], the IC50 in series [1] is 8.7 nM. Moreover, the results for the IC50 at 72 h in the series with ABCG2 (Gln141Lys mutant), in the series with ABCG2 (Val12Met mutant) and in the series with ABCG2 (wild type) were 26.8 nM, 12.2 nM and 21.3 nM, respectively. Also, the “difference in terms of the resistance among the cells” value in series [2] is “no significant difference”.
